Source: patent US9499614B2, “Methods for modulating protein glycosylation profiles of recombinant protein therapeutics using monosaccharides and oligosaccharides” (AbbVie, Inc., priority 2013, dated 2016)
Several values for one entry are separate records, joined by “and”; a condition that tells them apart may be missing. Identical values can stand only once. Entries after “also recorded” stand apart in the source; their conditions may differ.

Legend:
Assay type in all cases: cell-based, Chinese Hamster
Cell Line 1 [1] = experiment: 3 L laboratory-scale bioreactor culture of Cell Line 1, cell culture performance; conditions: for Osmolality / cell viability / lactate / pCO2 / viable cell density: 50 mM supplement vs control; for final harvest titer ratio: relative to unsupplemented control
Description: (§1) Two recombinant Chinese Hamster Ovary (CHO) cell lines expressing two different humanized monoclonal antibodies (Antibody 1, Antibody 2) were evaluated in two different culture vessels (shaker flasks and laboratory scale bioreactors). Both cell lines were of CHO DUX-B11 origin based on a dhfr (dihydrofolate reductase) expression system. Both cell lines were cultured in the same chemically defined basal media (CDBM), with Cell Line 1 also utilizing a chemically-defined feed media (CDFM). Each of the respective media were supplemented with selected monosaccharides and oligosaccharides to evaluate their potential impact on the resulting N-glycan oligosaccharide profile. In preparing the cultures, the cell lines were serially expanded through separate seed train inoculums to generate enough cells for inoculation.
(§2) Viable cell density (VCD) and cell viability values were measured through trypan blue exclusion via Cedex automated cell counters (Roche Applied Science, Indianapolis, Ind.), glucose and lactate values were measured with a ABL-805 (Radiometer Medical, Denmark) blood gas analyzer. Offline pH, dissolved oxygen (DO), and pCO2 measurements were performed with a ABL-805 (Radiometer Medical, Denmark) blood gas analyzer. Osmolality was measured on a Multi-Osmette 2430 osmometer (Precision Systems, Natick, Mass.).
(§3) Antibody titers were measured from crude cell culture harvests on a Poros A™ (Life Technologies, Carlsbad, Calif.) affinity column using an Agilent (Santa Clara, Calif.) 1200 Series HPLC, or equivalent, operating with a low pH, step elution gradient with detection at 280 nm. Absolute concentrations were assigned with respect to reference standard calibration curves.
3 L scale-down model bioreactors were utilized to verify the impact of select sugars on the resulting protein glycosylation profiles. The concentration of the sucrose and tagatose was chosen to minimize any potential adverse impact on cell growth and productivity, but still facilitate a measurable modulation of the glycosylation profile. Cell culture process performance indicators were monitored and measured throughout the respective cultures. Viable cell density, cell viability, lactate, pCO2, osmolality, harvest titer, and harvest N-glycan oligosaccharide data were measured and reported.
(§4) Two recombinant Chinese Hamster Ovary (CHO) cell lines expressing two different recombinant glycoproteins were evaluated in two different cultures vessels (shaker flasks and 3 L laboratory scale bioreactors). Cell Line 1 expressed Antibody 1, Cell Line 2 expressed Dual Variable Domain Immunoglobulin 1 (DVD 1) and Cell Line 3 expressed Antibody 2. Antibodies 1 and 2 are IgG1 proteins, and DVD 1 is an immunoglobulin with two variable domains as documented previously (Wu C. et al., (2007) Nat. Biotechnol 25(11):1290-1297). All cell lines were of CHO DUX-B11 origin based on a dhfr (dihydrofolate reductase) expression system. All cell lines were cultured in the same chemically defined basal media. Cell lines 1 and 2 were fed with the same chemically-defined feed media, but Cell Line 1 was fed media that was formulated at a 50% higher concentration. Each of the respective media were supplemented with either sucrose or tagatose to evaluate their potential impact on the resulting N-glycan oligosaccharide profile. All sugars were purchased from Sigma-Aldrich (St. Louis, Mo.). In preparation of the cultures, the cell lines were serially expanded through separate seed train inoculums to generate enough cells for inoculation.
as §2, with “performed with an ABL-805 (Radiometer” for “performed with a ABL-805 (Radiometer”, “gas analyzer. […]” for “gas analyzer. Osmolality was measured on a Multi-Osmette 2430 osmometer (Precision Systems, Natick, Mass.).”

Cell Line 2 = experiment: N-glycan oligosaccharide profiling, Cell Line 2 (DVD 1) shake flasks (Example 2); conditions: 50 mM supplement vs control
Description: as §4
Purified antibodies subjected to additional analytical characterization were purified using MabSelect™ Protein A (GE Healthcare, Piscataway, N.J.) using a low pH, step elution gradient, followed by buffer exchange using Corning Lifesciences (Tewksbury, Mass.) Spin Concentrator X UF columns according to the manufacturers' recommended procedures.
Approximately 200 μg of Protein A purified samples from Cell Lines 1 and 2 were treated with N-glycanase at 37° C. overnight to remove the N-glycans from the protein. The protein was precipitated and the supernatant was taken for subsequent chemical derivatization of the reducing end of the released glycans with 2-aminobenzamide (2-AB) dye. Following the derivatization step, the excess label was removed using clean up cartridges and the samples were analyzed using normal phase HPLC with fluorescent detection. Mobile phase A was 100% acetonitrile and mobile phase B was 50 mM ammonium formate pH 4.4. The glycans were eluted from a polyamide column (Prozyme, Hayward, Calif.) using a shallow gradient. The labeled glycans were detected using a fluorescence detector with an excitation wavelength of 330 nm and an emission wavelength of 420 nm.
Experimental results are expressed as mean±SD for those results generated from at least three independent cultures. Experimental results are expressed as the measured value for those results generated from less than three independent cultures. Results were evaluated for statistical significance through 2-sided t-tests, with a requirement of p<0.05 relative to the unsupplemented control conditions.
Cell Line 2 was cultured in shake flasks in fed batch mode after an abbreviated seed train. Sucrose and tagatose were supplemented into chemically-defined basal and feed media at concentrations of 1, 30, and 50 mM, and process performance results were compared to unsupplemented control conditions. The viable cell density (VCD), viability, and harvest titer results are shown in FIGS. 15A-15C for the sucrose supplemented cultures and FIGS. 16A-16C for the tagatose supplemented cultures.

Cell Line 1 [2] = experiment: Shake flask fedbatch culture of Cell Line 1, cell culture performance (Example 1)
Description: as §1, §2, §3
Cell Line 1 was cultured in shake flasks in fedbatch mode after an abbreviated seed train. Sucrose and tagatose were supplemented into chemically-defined basal and feed media at concentrations of 30, 50, and 70 mM, and compared to an unsupplemented control condition. The viable cell density (VCD), viability, and harvest titer results are shown in FIGS. 3A-3C and FIGS. 5A-5C for the sucrose, and tagatose conditions, respectively. Both sugars facilitated a slight decrease in VCD, with the higher concentrations also supporting the lowest peak VCD. […] As such, the upper threshold of sucrose or tagatose concentration should not be exceeded.

Row | Structure (SMILES) | Osmolality (Cell Line 1 [1]) | cell viability (Cell Line 1 [1]) | lactate (Cell Line 1 [1]) | pCO2 (Cell Line 1 [1]) | viable cell density (Cell Line 1 [1]) | final harvest titer ratio (Cell Line 1 [1]; 50 mM supplement) | cumulative increase in overall mannosylated N-glycans (Cell Line 2) | decrease in NA1F species (Cell Line 2) | decrease in NGA2F species (Cell Line 2) | increase in Man 5 species (Cell Line 2) | increase in Man 6 species (Cell Line 2) | increase in NGA2F-GlcNAc species (Cell Line 2) | overall decrease in the fucosylation level (Cell Line 2) | Harvest titer (adverse impact) (Cell Line 1 [2]; 30 mM supplement vs control) | Harvest titer (adverse impact) (Cell Line 1 [2]; 50 mM supplement vs control) | Harvest titer (adverse impact) (Cell Line 1 [2]; 70 mM supplement vs control) | cell viability (Cell Line 1 [2]; 70 mM supplement vs control) | peak VCD (Cell Line 1 [1]; 50 mM supplement)
1 | OC[C@H]1O[C@@](CO)(O[C@H]2O[C@H](CO)[C@@H](O)[C@H](O)[C@H]2O)[C@@H](O)[C@@H]1O [sucrose] | only slightly higher | no impact | only a nominal increase | no significant difference | no impact | 0.78 | 8% | 1% | 20% | 7% and 3% | 1% | 8% | 13% | did not adversely impact titer | did not adversely impact titer | reduce the harvest titer significantly | decrease in cell viability that was larger, and earlier in the culture | –
2 | O=C(CO)[C@@H](O)[C@@H](O)[C@H](O)CO [tagatose] | higher; also recorded: only slightly higher | remained high throughout the culture | only a nominal increase | no significant difference | much more pronounced effect | 0.90 | 4% | 1% | 9% | – | – | 5% | 5% | did not adversely impact harvest titer | did | did | – | 8.5×10^6 cells/mL
